Results taken from patent US10221175B2, “Substituted pyrrolo[3,4-e]indolizines, imidazo[1,2-a]pyrrolo[3,4-e]pyridines, pyrrolo[3,4-e][1,2,4]triazolo[1,5-a]pyridines and pyrrolo[3,4-e][1,2,4]triazolo[4,3-a]pyridines as positive allosteric modulators of muscarinic acetylcholine receptor M1” (Vanderbilt University, priority 2015, dated 2019).

Target: T1, mAChR M1 (UniProt P11229)
T1 sequence (P11229 1-460): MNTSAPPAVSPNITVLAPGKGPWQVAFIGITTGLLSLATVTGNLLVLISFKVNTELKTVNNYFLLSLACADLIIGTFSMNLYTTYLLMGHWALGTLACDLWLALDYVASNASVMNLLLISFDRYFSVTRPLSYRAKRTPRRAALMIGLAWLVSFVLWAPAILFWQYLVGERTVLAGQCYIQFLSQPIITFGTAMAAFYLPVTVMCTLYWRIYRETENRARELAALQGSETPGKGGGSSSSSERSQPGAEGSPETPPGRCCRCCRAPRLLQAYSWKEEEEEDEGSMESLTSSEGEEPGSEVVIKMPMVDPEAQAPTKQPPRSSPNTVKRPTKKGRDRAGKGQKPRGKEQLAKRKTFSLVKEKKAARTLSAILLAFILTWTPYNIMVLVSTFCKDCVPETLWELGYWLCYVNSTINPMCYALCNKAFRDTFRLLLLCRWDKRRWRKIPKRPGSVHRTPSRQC
Test: mAChR M1 cell-based functional assay (calcium mobilization, potentiation of EC20 acetylcholine response)
Conditions: for M1 AChmax (%): maximal response as % of ACh maximum, CHO-K1 cells expressing M1; for EC50: positive allosteric modulator activity, concentration-dependent increase in EC20 acetylcholine response, CHO-K1 cells, >10 μM estimated where no plateau but >20% increase in ACh response
Excerpt: Chinese hamster ovary (CHO-K1) cells stably expressing rat (r)M1 were purchased from the American Type Culture Collection and cultured according to their indicated protocol. CHO cells stably expressing human (h)M2, hM3, and hM5 were described previously (Levey, et al., 1991); hM1 and hM4 cDNAs were purchased from Missouri S&T cDNA Resource; rM4 cDNA was provided by T. I. Bonner (National Institutes of Health, Bethesda, Md.). rM2 and rM3 were cloned from a rat brain cDNA library and sequence verified. hM1, rM2, rM3, hM4, and rM4 cDNAs were used to stably transfect CHO-K1 cells purchased from the American Type Culture Collection using Lipofectamine2000. To make stable rM2, hM2, rM3, hM4, and rM4 cell lines for use in calcium mobilization assays, these cells also were stably transfected with a chimeric G-protein (Gqi5) (provided by B. R. Conklin, University of California, San Francisco) using Lipofectamine 2000. rM1, hM1, rM3, hM3, rM5, and hM5 cells were grown in Ham's F-12 medium containing 10% heat-inactivated fetal bovine serum (FBS), 20 mM HEPES, and 50 μg/mL G418 sulfate. rM2-Gqi5, hM2-Gqi5, and hM4-Gqi5 cells were grown in the same medium also containing 500 μg/mL Hygromycin B. Stable rM4-Gqi5 cells were grown in DMEM containing 10% heat-inactivated FBS, 20 mM HEPES, 400 μg/mL G418 sulfate, and 500 μg/mL Hygromycin B.
For high throughput measurement of agonist-evoked increases in intracellular calcium, CHO-K1 cells stably expressing muscarinic receptors were plated in growth medium lacking G418 and hygromycin at 15,000 cells/20 μL/well in Greiner 384-well black-walled, tissue culture (TC)-treated, clear-bottom plates (VWR). Cells were incubated overnight at 37° C. and 5% CO2. The next day, cells were washed using an ELX 405 (BioTek) with four washes (80 μL) of assay buffer then aspirated to 20 μL. Next, 20 μL of 16 μM Fluo-4/acetoxymethyl ester (Invitrogen, Carlsbad, Calif.) prepared as a 2.3 mM stock in DMSO and mixed in a 1:1 ratio with 10% (w/v) Pluronic F-127 and diluted in assay buffer was added to the wells and the cell plates were incubated for 50 min at 37° C. and 5% CO2. Dye was removed by washing with the ELX 405 (four 80 μL washes of assay buffer) then aspirated to 20 μL. Compound master plates were formatted in an 11 point CRC format (1:3 dilutions) in 100% DMSO with a starting concentration of 10 mM using the BRAVO liquid handler (Agilent). Test compound CRCs were then transferred to daughter plates (240 nL) using the Echo acoustic plate reformatter (Labcyte, Sunnyvale, Calif.) and then diluted into assay buffer (40 μL) to a 2× stock using a Thermo Fisher Combi (Thermo Fisher Scientific, Waltham, Mass.).
Calcium flux was measured using the Functional Drug Screening System (FDSS) 6000 (Hamamatsu Corporation, Tokyo, Japan) as an increase in the fluorescent static ratio. Compounds were applied to cells (20 μL, 2×) using the automated system of the FDSS 6000 at 4 s into the 300 s protocol and the data were collected at 1 Hz. At 144 s into the 300s protocol, 10 μL of an EC20 concentration of the muscarinic receptor agonist acetylcholine was added (5×), followed by the addition of 12 μL an EC8O concentration of acetylcholine at the 230 s time point (5×). Agonist activity was analyzed as a concentration-dependent increase in calcium mobilization upon compound addition. Positive allosteric modulator activity was analyzed as a concentration-dependent increase in the EC20 acetylcholine response. Antagonist activity was analyzed as a concentration-dependent decrease in the EC80 acetylcholine response. Concentration-response curves were generated using a four-parameter logistical equation in XLfit curve fitting software (IDBS, Bridgewater, N.J.) for Excel (Microsoft, Redmond, Wash.) or Prism (GraphPad Software, Inc., San Diego, Calif.). […]

| Compound | M1 AChmax (%) | EC50 [nM] |
| --- | --- | --- |
| COc1ccc(-c2cc(F)c(CN3Cc4ccc5nncn5c4C3=O)c(F)c2)cn1 [Compound 7] | 70% | 2640 |
| O=C1c2c(ccc3nncn23)CN1Cc1ccc(-c2cnc3ccccc3c2)cc1F [Compound 4] | 73% | 1750 |
| Cc1ccc(-c2ccc(CN3Cc4ccc5nnc(C)n5c4C3=O)c(F)c2)c2cn(C)nc12 [Compound 18] | 82% | 2140 |
| O=C1c2c(ccc3nncn23)CN1Cc1c(F)cc(-c2ccc3ncccc3c2)cc1F [Compound 5] | 81% | 743 |
| O=C1c2c(ccc3nccn23)CN1Cc1ccc(-n2cccn2)cc1F [Compound 40] | 26% | > 10000 |
| O=C1c2c(ccc3nccn23)CN1Cc1ccc(N2CCOCC2)nc1 [Compound 38] | 26% | > 10000 |
| Cc1ccc(CN2Cc3ccc4nccn4c3C2=O)cn1 [Compound 36] | 25% | > 10000 |
| Cc1nnc2ccc3c(n12)C(=O)N(Cc1c(F)cc(-c2cnn(C)c2)cc1F)C3 [Compound 14] | 79% | 1790 |
| Cn1cc2c(-c3ccc(F)c(CN4Cc5ccc6nncn6c5C4=O)c3)cccc2n1 [Compound 23] | 56.4% | 1350 |
| O=C1c2c(ccc3nccn23)CN1Cc1ccc(-n2nccn2)cc1 [Compound 42] | 35% | > 10000 |
| Cn1cc2c(-c3cc(F)c(CN4Cc5ccc6nccn6c5C4=O)c(F)c3)cccc2n1 [Compound 32] | 72% | 1400 |
| COc1ccc(-c2ccc(F)c(CN3Cc4ccc5nncn5c4C3=O)c2)cn1 [Compound 26] | – | > 30000 |
| Cn1cc(-c2cc(F)c(CN3Cc4ccc5nncn5c4C3=O)c(F)c2)cn1 [Compound 3] | 83% | 656 |
| O=C1c2c(ccc3nccn23)CN1Cc1ccc(-n2ccnn2)nc1 [Compound 37] | 26% | > 10000 |
| Cn1cc2cc(-c3ccc(CN4Cc5ccc6nccn6c5C4=O)c(F)c3)ccc2n1 [Compound 34] | 62% | 3900 |
| Cc1ccc(-c2ccc(CN3Cc4ccc5nncn5c4C3=O)c(F)c2)c2cn(C)nc12 [Compound 8] | 82% | 1060 |
| O=C1c2c(ccc3nncn23)CN1Cc1cc(-c2ccc3ncccc3c2)ccc1F [Compound 25] | – | > 30000 |
| Cc1nnc2ccc3c(n12)C(=O)N(Cc1ccc(-c2ccc4nn(C)cc4c2)cc1F)C3 [Compound 16] | 83% | 1210 |
| Cc1cc(-c2ccc(CN3Cc4ccc5nncn5c4C3=O)c(F)c2)cc2cn(C)nc12 [Compound 17] | 81% | 618 |
| Cn1cc2c(-c3cc(F)c(CN4Cc5ccc6nncn6c5C4=O)c(F)c3)cccc2n1 [Compound 1, 7-(2,6-difluoro-4-(2-methyl-2h-indazol-4-yl)benzyl)-6,7-dihydro-8H-pyrrolo[3,4-e][1,2,4]triazolo [4,3-a]pyridin-8-one] | 72 (n = 2) % | – |

| Compound | M1 AChmax (%) | EC50 [nM] |
| --- | --- | --- |
| Cn1cc2cc(-c3ccc(F)c(CN4Cc5ccc6nncn6c5C4=O)c3)ccc2n1 [Compound 22] | 35.3% | 1310 |
| O=C1c2c(ccc3nncn23)CN1Cc1ccc(-c2ccc3ncccc3c2)cc1F [Compound 10] | 84% | 1570 |
| Cc1cn2c3c(ccc2n1)CN(Cc1c(F)cc(-c2cnn(C)c2)cc1F)C3=O [Compound 29] | – | > 30000 |
| O=C1c2c(ccc3nccn23)CN1Cc1c(F)cc(-c2ccc3ncccc3c2)cc1F [Compound 39] | 28% | – |
| Cc1cc(-c2ccc(CN3Cc4ccc5nnc(C)n5c4C3=O)c(F)c2)cc2cn(C)nc12 [Compound 20] | 84% | 2100 |
| Cc1nnc2ccc3c(n12)C(=O)N(Cc1c(F)cc(-c2ccc4nn(C)cc4c2)cc1F)C3 [Compound 15] | 76% | 1240 |
| Cn1cc(-c2ccc(CN3Cc4ccc5nccn5c4C3=O)c(F)c2)cn1 [Compound 27] | 70.1% | 2260 |
| O=C1c2c(ccc3nncn23)CN1Cc1c(F)cc(-c2cnc3ccccc3c2)cc1F [Compound 13] | 57% | 1820 |
| Cn1cc(-c2ccc(CN3Cc4ccc5ncnn5c4C3=O)c(F)c2)cn1 [Compound 30] | 85.9% | 677 |
| Cn1cc2cc(-c3ccc(CN4Cc5ccc6nncn6c5C4=O)c(F)c3)ccc2n1 [Compound 9, 7-(2-fluoro-4-(2-methyl-2H-indazol-5-yl)benzyl)-6,7-dihydro-8H-pyrrolo [3,4-e][1,2,4]triazolo[4,3-a]pyridin-8-one] | 90% | 502 |
| Cn1cc(-c2ccc(F)c(CN3Cc4ccc5nncn5c4C3=O)c2)cn1 [Compound 21] | 36.8% | > 10000 |
| Cn1cc(-c2cc(F)c(CN3Cc4ccc5ncnn5c4C3=O)c(F)c2)cn1 [Compound 31, 7-(2,6-difluoro-4-(1-methyl-1H-pyrazol-4-yl)benzyl)-6,7-dihydro-8H-pyrrolo[3,4-e][1,2,4]triazolo[1,5-a]pyridin-8-one] | 85.3% | 1630 |
| Cn1cc2cc(-c3cc(F)c(CN4Cc5ccc6nccn6c5C4=O)c(F)c3)ccc2n1 [Compound 35] | 42% | – |
| Cn1cc(-c2cc(F)c(CN3Cc4ccc5nccn5c4C3=O)c(F)c2)cn1 [Compound 28, 2-(2,6-difluoro-4-(1-methyl-1H-pyrazol-4-yl)benzyl)-2,3-dihydro-1H-imidazo[1,2-a]pyrrolo[3,4-e]pyridin-1-one] | 67.7% | 2370 |
| Cn1cc2cc(-c3cc(F)c(CN4Cc5ccc6nncn6c5C4=O)c(F)c3)ccc2n1 [Compound 6] | 84% | 488 |
| CNC(=O)c1ccc(CN2Cc3ccc4nccn4c3C2=O)cc1 [Compound 41] | 38% | – |
| Cn1cc2c(-c3ccc(CN4Cc5ccc6nncn6c5C4=O)c(F)c3)cccc2n1 [Compound 2, 7-(2-fluoro-4-(2-methyl-2H-indazol-4-yl)benzyl)-6,7-dihydro-8H-pyrrolo [3,4-e][1,2,4]triazol[4,3-a]pyridin-8-one] | 78% | 688 |
| Cn1cc2c(-c3ccc(CN4Cc5ccc6nccn6c5C4=O)c(F)c3)cccc2n1 [Compound 33] | 65% | 2200 |
| Cc1nnc2ccc3c(n12)C(=O)N(Cc1c(F)cc(-c2cccc4nn(C)cc24)cc1F)C3 [Compound 19] | 81% | 1410 |
| Cn1cc(-c2ccc(CN3Cc4ccc5nncn5c4C3=O)c(F)c2)cn1 [Compound 11] | 86% | 856 |
